Measurements as given in PMC5104425, “A Novel Selective Inhibitor of Delta-5 Desaturase Lowers Insulin Resistance and Reduces Body Weight in Diet-Induced Obese C57BL/6J Mice” (PLoS ONE, 2016).

Columns and labels:
DIO mice = experiment: 6-week treatment of HFD (D12079B)-fed DIO mice: BW and blood/tissue fatty acids; assay type: in vivo, C57BL/6J mice
Method: Fatty acids were extracted from blood and tissues by adding hexane-isopropanol-butylated hydroxytoluene (60:40:0.01, v/v/w). Samples were vortexed for 30 min. The hexane phase was removed and evaporated to dryness under nitrogen stream and vacuum. Dried samples were dissolved in methanol and analyzed by HPLC.
Mice fed a HFD that has 41% kcal from fat and contains no AA (D12079B; Research diets, Inc.) from 5 weeks of age were divided into 2 groups at the age of 8 weeks (8 animals per group), and were administered 10 mg/kg compound-326 or vehicle for 6 weeks. After the treatment period, mice were sacrificed and epididymal and subcutaneous fats were harvested for mRNA analysis. Nine animals maintained on a standard chow (CE2, CLEA Japan, Osaka) were used as control.

[1] = system: epididymal fat of DIO mice; experiment: Satellite DIO mice, day 32: epididymal fat gene expression and BW; assay type: in vivo, C57BL/6J mice; settings: 10 mg/kg, 32 days
Text: Total RNA was extracted and purified using RNeasy Mini Kit (QIAGEN, USA). First-strand cDNA was synthesized using High Capacity cDNA Reverse Transcription Kits (Thermo Fisher, USA). The mRNA levels were quantified by an ABI Prism 7900 TaqMan PCR system (Thermo Fisher, USA) according to the manufacturer’s instruction using TaqMan® Universal PCR Mastermix with the primer-probe sets of TaqMan Gene Expression Assays (Thermo Fisher, USA) for the following genes: Ccl2 (chemokine (C-C motif) ligand 2; Mm99999056_m1), Cd68 (CD68 antigen; Mm03047343_m1), Adgre1 (adhesion G protein-coupled receptor E1; Mm00802529_m1), Tnf (tumor necrosis factor; Mm00443258_m1), Il6 (interleukin 6; Mm99999064), Lep (leptin; Mm00434759_m1), Adipoq (adiponectin; Mm00456425_m1), Fads2 ([…]; Mm00517221_m1), Fads1 ([…]; Mm00507605_m1), Ucp1 (uncoupling protein 1; Mm00494069_m1), Elovl3 (elongation of very long chain fatty acids 3; Mm00468164_m1), Cidea (cell death-inducing DNA fragmentation factor, alpha subunit-like effector A; Mm00432554_m1), Otop1 (otopetrin 1; Mm00554705_m1), and Rplp0 (ribosomal protein, large, P0; forward; 5'-[…]-3', reverse; 5'-[…]-3', probe (VIC-5'→3'-TAMRA); 5'-[…]-3'). The Rplp0 mRNA level was used as a reference and relative transcript levels were calculated with the comparative Ct method (2^-ΔΔCT) (Applied Bio-systems).
In 6 weeks administration study of compound-326 (10 mg/kg), satellite animals were prepared to evaluate the gene expression levels in epididymal fat at the intermediate point (day 32). Mice fed a HFD (D12079B; Research diets, Inc.) from 5 weeks of age were divided into 2 groups at the age of 8 weeks (11 animals per group), and were administered 10 mg/kg compound-326 or vehicle for 32 days. After the treatment period, mice were sacrificed and epididymal fat were harvested for mRNA analysis. […] (B) RT-qPCR was performed in epididymal fat tissue after 32 days treatment. Data are expressed as mean ± SE (n=11). *p≤ 0.05 vs. DIO vehicle by Aspin-Welch test. ¶¶p≤ 0.01 vs. DIO vehicle by Student's t-test.

[2] = 10 mg/kg, after 6-week treatment

Compound: O=C1Cc2c(nc(OCC(F)(F)C(F)(F)F)n(-c3ccc(OCC(F)(F)F)cc3)c2=O)N1 [Compound-326, 2-(2,2,3,3,3-Pentafluoropropoxy)-3-[4-(2,2,2-trifluoroethoxy)phenyl]-5,7-dihydro-3H-pyrrolo[2,3-d]pyrimidine-4,6-dione]
- AA to DGLA ratio in epididymal fat (DIO mice; 10 mg/kg p.o., 6 weeks): significantly decreased
- AA to DGLA ratio in the blood (DIO mice; 10 mg/kg p.o., 6 weeks): decrease
- AA to DGLA ratio in the liver (DIO mice; 10 mg/kg p.o., 6 weeks): significantly decreased
- n-3 PUFA (EPA and DHA) in blood, liver, and adipose tissue (DIO mice; 10 mg/kg p.o., 6 weeks): significantly decreased
- BW (DIO mice; 10 mg/kg p.o., 6 weeks, vs vehicle): significantly decreased
- AA in the blood as well as liver (DIO mice; [2]): decrease
- DGLA in the blood as well as liver (DIO mice; [2]): increase
- Adgre1 gene expression level in epididymal fat [1]: significantly decreased
- BW [1]: no significant BW loss
- Ccl2 gene expression level in epididymal fat [1]: significantly decreased
- Cd68 gene expression level in epididymal fat [1]: significantly decreased
- Il6 gene expression level in epididymal fat [1]: significantly decreased
